In data set [1] the test system is Human immunodeficiency virus. The experiment in a line: Antiviral activity against wild type HIV. Format: functional, organism-based. Conditions: Human immunodeficiency virus 1.
The nature of data set [2]: Cytotoxicity against human MT2 cells. Format: cell-based.
A short description of data set [3]: Inhibition of wild type HIV reverse transcriptase. On the set-up: species or system Human immunodeficiency virus.
Data set [4] concerns Human immunodeficiency virus. In words: Antiviral activity against HIV with reverse transcriptase K65R mutation in MT-2 cells assessed as fold resistance relative to wild type.
Data set [5] relates to Human immunodeficiency virus. The experiment in a line: Antiviral activity against HIV with reverse transcriptase M184V mutation in MT-2 cells assessed as fold resistance relative to wild type.
Data set [6] has as its system Human immunodeficiency virus. The experiment in a line: Antiviral activity against HIV with reverse transcriptase 6TAMs mutation in MT-2 cells assessed as fold resistance relative to wild type.

Molecules are shown by their SMILES.

For `Cc1cn([C@H]2C=C[C@@H](OCP(=O)(O)O)O2)c(=O)[nH]c1=O`, it took 26 µM to reach a half-maximal effect in data set [1] (EC50). The CC50 (as a rule, the concentration that lowers cell viability or growth by half) in data set [2] is above 1000 µM. In data set [3], the IC50 (in general, the concentration that gives 50% inhibition) was 0.39 µM. Moreover, the Activity in data set [4] is recorded as 5.2; in data set [5], 1.1; in data set [6], 12.7.
`Cc1cn([C@H]2CC[C@@H](OCP(=O)(O)O)O2)c(=O)[nH]c1=O`: the EC50 – broadly, the concentration needed to bring the measured effect to its halfway point – in data set [1] was above 200 µM. Moreover, the IC50 in data set [3] came to 5.4 µM.
In data set [3], `O=c1ccn([C@H]2C=C[C@@H](OCP(=O)(O)OP(=O)(O)OP(=O)(O)O)O2)c(=O)[nH]1` showed an IC50 of 0.55 µM.
On to `Nc1ncnc2c1ncn2[C@H]1C=C[C@@H](OCP(=O)(O)OP(=O)(O)OP(=O)(O)O)O1`, for which the IC50 in data set [3] is 0.14 µM.
`O=c1[nH]c(=O)n([C@H]2C=C[C@@H](OCP(=O)(O)O)O2)cc1F` displayed an EC50 in data set [1] above 200 µM.
With `O=c1[nH]c(=O)n([C@H]2C=C[C@@H](OCP(=O)(O)O)O2)cc1Cl`, in data set [1], a half-maximal response (EC50) required 28.5 µM. This compound also had a CC50 in data set [2] of 413 µM. In addition, the Activity is listed as 6.7 in data set [4], 0.8 in data set [5] and above 10 in data set [6].
`Nc1ccn([C@H]2C=C[C@@H](OCP(=O)(O)O)O2)c(=O)n1`: in data set [1], the half-maximal effective concentration (EC50) is above 200 µM.
In data set [1], `Nc1ncnc2c1ncn2[C@H]1CO[C@@H](OCP(=O)(O)O)C1` gave an EC50 of 9.5 µM. The same compound yielded a CC50 in data set [2] of 863 µM. Moreover, the IC50 in data set [3] was found to be 0.32 µM. Further, the Activity in data set [4] is listed as 2.2; in data set [5], 11; in data set [6], 3.2.
As for `O=c1ccn([C@H]2CC[C@@H](OCP(=O)(O)O)O2)c(=O)[nH]1`, in data set [1], the concentration giving a half-maximal response (EC50) is above 200 µM.
For `Nc1ncnc2c1ncn2[C@H]1CC[C@@H](OCP(=O)(O)O)O1`, the midpoint of the response in data set [1], the EC50, lay at 12 µM. This compound came in with a CC50 in data set [2] above 1000 µM. In addition, in data set [3], the IC50 came to 4.1 µM. Also, the Activity amounted to 4.9 in data set [4], 1.1 in data set [5] and 3.4 in data set [6].
In turn, `O=c1[nH]c(=O)n([C@H]2C=C[C@@H](OCP(=O)(O)O)O2)cc1Br` came in with an EC50 in data set [1] of 15 µM. Further, in data set [2], the CC50 was 935 µM. Further, the results for the Activity in data set [4], in data set [5] and in data set [6] were 7.5, 1.3 and above 10, respectively.
`Cc1cn([C@H]2C=C[C@@H](OCP(=O)(O)OP(=O)(O)OP(=O)(O)O)O2)c(=O)[nH]c1=O` yielded a 50% inhibitory concentration (IC50) in data set [3] of 0.06 µM.
The same measure, in the same setting: the value for `Nc1ncnc2c1ncn2[C@H]1CC[C@@H](OCP(=O)(O)OP(=O)(O)OP(=O)(O)O)O1` was 0.26 µM.
The compound `Nc1ncnc2c1ncn2[C@H]1C=C[C@@H](OCP(=O)(O)O)O1` showed an EC50 in data set [1] of 2.1 µM. This compound also had a CC50 in data set [2] above 1000 µM. Moreover, the IC50 in data set [3] was 0.6 µM. In addition, the Activity in data set [4] is 2.9; in data set [5], 0.9; in data set [6], 2.9.
In turn, `Nc1ncnc2c1ncn2[C@H]1C=C[C@@H](OCP(=O)(O)O)C1` registered an EC50 in data set [1] of 51.7 µM. In other words, the double-digit micromolar range.
As to `O=c1ccn([C@H]2C=C[C@@H](OCP(=O)(O)O)O2)c(=O)[nH]1`, in data set [1], the EC50 was above 200 µM. Also, in data set [2], the CC50 is above 1000 µM. In data set [3], this compound gave an IC50 of 5.7 µM.
With `Nc1nc(NC2CC2)c2ncn([C@H]3C=C[C@@H](CO)C3)c2n1` (single isomer, unassigned) [ABACAVIR], a half-maximal response in data set [1] (EC50) required 0.32 µM. In data set [2], this compound showed a CC50 of 190 µM. Moreover, 0.13 µM corresponded to half-maximal inhibition in data set [3] (IC50). For the same compound, the figures for the Activity in data set [4], in data set [5] and in data set [6] were 3.8, 7.1 and 5.7, respectively.
On to `C[C@H](Cn1cnc2c(N)ncnc21)OCP(=O)(O)O` [TENOFOVIR ANHYDROUS], for which the EC50 in data set [1] turned out to be 3.6 µM. The compound also had a CC50 in data set [2] above 1000 µM. The half-maximal inhibitory concentration (IC50) in data set [3] turned out to be 0.38 µM. Moreover, the Activity in data set [4] is 4.3; in data set [5], 0.7; in data set [6], 8.8.
